# “Also recorded” adds a separate entry of the source.
# Experiments:
# Format in all cases: in vivo, mouse
# [1] = Intranasal PZ6005 in diet-induced obese mice: food intake and energy expenditure; conditions: I.N. 1 or 5 mg/animal/day, Day 8-Day 11 of treatment, diet-induced obesity
# Protocol: (§1) Mice were acclimated for 24 h and then monitored for 48 h in an environmentally controlled Promethion Metabolic Screening System (Sable Systems International, NV) fitted with indirect open circuit calorimetry, food consumption and activity monitors to measure activity, caloric intake and energy expenditure. Respiratory quotients were calculated as the ratio of CO2 production over O2 consumption respiratory exchange ratio and energy expenditure was calculated using the Weir equation (Kcal h-1=60×(0.003941×VO2+0.001106×VCO2). To account for difference in body mass/composition energy expenditure was analysed and adjusted using ANCOVA using scripts available at the National Mouse Metabolic Phenotyping Centers (MMPC, Nashville, TN, USA) Energy Expenditure Analysis Page (https://www.mmpc.org/shared/regression.aspx).
# Conscious mice were restrained by scruffing and inverted parallel to the floor with the chin at ˜180-degree angle with the neck. Using a 10 μL tip, a pipettor was loaded with 5 μl of vehicle (ddH2O) or fluorosamine (1 mg/animal in 20 μl or 5 mg/animal in 20 μl). The tip of the filled pipettor was placed near the left nostril at a 45-degree angle, and the drug was ejected to form a small 5 μl droplet at tip for the mouse to inhale. […]
# [2] = test system: insulin-induced p-AKT in the ARC; assay: Intranasal PZ6005 in obese mice: insulin-induced p-AKT immunohistochemistry in the ARC; conditions: both doses I.N. (1 or 5 mg/animal/day), 14 days, after I.P. insulin
# Protocol: Conscious mice were restrained by scruffing and inverted parallel to the floor with the chin at ˜180-degree angle with the neck. Using a 10 μL tip, a pipettor was loaded with 5 μl of vehicle (ddH2O) or fluorosamine (1 mg/animal in 20 μl or 5 mg/animal in 20 μl). The tip of the filled pipettor was placed near the left nostril at a 45-degree angle, and the drug was ejected to form a small 5 μl droplet at tip for the mouse to inhale. Immediately after the mouse inhaled the first droplet the remaining solution was ejected to form another small droplet for the mouse to inhale through the same nostril. The mouse was held in this position for 15 seconds before the procedure was repeated in the right nostril. The mouse was returned to the cage for 2 minutes and the process was repeated so that each mouse received four droplets of 5 μl each, delivering a total of 20 μl of solution. All drugs were administered delivered approximately 1 h before lights off […].
# [3] = I.C.V. fluorosamine in obese AgRP-Cas9 mice given AAV-gScrambled or AAV-gIR; conditions: 100 μg/animal I.C.V. daily for 10 days
# Protocol: Metabolic measurements were undertaken in the Melbourne Mouse Metabolic Phenotyping Platform (The University of Melbourne, Australia). Glucose tolerance tests were performed on 6 h fasted conscious mice respectively by injecting D-glucose (2 mg/g of lean body mass and 1 mg/g lean mass for db/db and HFHS+STZ mice) into the peritoneal cavity and measuring glucose in tail blood immediately before and at 15, 30, 45, 60, 90 and 120 min after injection using an Accu-Check glucometer (Roche, Germany). The areas under glucose excursion curves were determined and expressed as mmol/1×min. Fasted (12 h fast) plasma insulin or glucose levels were determined using a Rat/Mouse Insulin ELISA (EZRMI-13K, Merck Millipore, CA) or an Accu-Check glucometer respectively. The HOMA-IR was calculated using the equation [(glucose×insulin)/405]. Adiposity was measured using TD-NMR minispec (Bruker Optics Inc., Billerica, MA).
# as §1
# Under isoflurane anaesthetic 12-week HFHS fed C57BL/6J or AgRP-Cas9 mice were implanted stereotaxically with guide cannulas into the right lateral ventricle (0.2 mm posterior, 1.0 mm lateral from bregma). Guide cannula was positioned 1.3 mm above the injection site (1 mm ventral to the surface of the skull). AgRP-Cas9 mice were treated with either AAV-gScrambled or AAV-gIR and underwent guide cannula placement 7 days post AAV administration. Mice were administered I.C.V. vehicle (ddH2O), fluorosamine (100 μg/animal/day or 250 μgl/animal/day) in a volume of 2 μl/animal and all compounds were delivered approximately 1 h before lights off […].
# CSPG-ECM = assay: I.C.V. fluorosamine in obese mice: WFA immunostaining of CSPG-ECM in brain areas
# Protocol: For detection of aggrecan, GFP, HABP, parvalbumin, mCherry, versican, tenascin-C, HAPLN1, neurocan, phosphacan, brevican, WFA and WFA-FITC sections were incubated at room temperature for 1 h in blocking buffer (0.3% Triton X-100, 5% normal goat serum, Gibco, ThermoFisher, MA, 0.02% sodium azide) and then overnight at 4° C. in 1% blocking buffer containing either rabbit anti-aggrecan (1:1000, AB1031, Millipore, MA), chicken anti-GFP (1:2000; ab13970, Abcam, Cambridge, UK), Biotinylated HABP (1:100, 385911, Burlington, MA), sheep anti-parvalbumin (1:1000), in house), rabbit anti-dsRed (1:2000, 600-401-379, Rockland, PA), rabbit anti-versican (1:1000, AB1033, Millipore, MA), tenascin-C (1:500, M1-B4, Developmental Studies Hybridoma Bank, Iowa), HAPLN1 (1:500, 9/30/8-A-4, Developmental Studies Hybridoma Bank, Iowa), neurocan (1:300, 1F6-S, Developmental Studies Hybridoma Bank, Iowa), phophacan (1:300, 3F8, Developmental Studies Hybridoma Bank, Iowa), brevican (1:500, 610895, BD Transduction Laboratories), biotinylated WFA (1:2000, L1516; Sigma-Aldrich, MO), WFA-FITC (1:2000, FL-1351-2, Vector Laboratories, CA), rabbit anti PGP9.5 (1:1000, 14730-1-AP, Proteintech, IL), guinea pig anti AgRP (1:500, AS506, Antibodies Australia, Melbourne, AUS). […]
# All image quantification was performed in Image J (NIH) software (NIH, MA). […] To quantify area and intensity of the CSPG-ECM within each brain region (ARC, VMH or RSG cortex) images were thresholded and binarized to create a region of interest (ROI) mask of only the CSPG-ECM. For each brain area, CSPG-ECM ROI area (μm^2) and intensity (sum of all pixel intensities within the ROI) was calculated. […]
# [4] = control AAV-gScrambled AgRP-Cas9 mice
structure (smiles),measurement,setting,value
"CC(=O)NC1C(OC(C)=O)OC(COC(C)=O)[C@@H](F)C1OC(C)=O (stereo partly drawn) [fluorosamine, per-O-acetylated-4-F-N-acetylglucosamine]",energy expenditure,[1],increases energy expenditure
same,food intake,[1],decreases food intake
same,ARC pAKT +ve. cells (insulin receptor signalling),[2],robust increase
same,positive metabolic outcomes of treatment,[3]; AAV-IR AgRP-Cas9 mice (AgRP insulin receptor disrupted),"mitigated, at least in part"
same,adiposity,[3]; [4],reduced adiposity
same,body weight,[3]; [4],promoted weight loss
same,caloric intake,[3]; [4],attenuated caloric intake
same,energy expenditure,[3]; [4],enhanced energy expenditure independently of ambulatory activity
same,glycaemic control,[3]; [4],improved glycaemic control
same,CSPG-ECM in other brain areas such as the RSG cortex,CSPG-ECM; I.C.V. daily for 10 days,did not reduce CSPG-ECM
same,"neurofibrosis (CSPG-ECM, WFA immunostaining) within the ARC",CSPG-ECM; I.C.V. daily for 10 days,significantly attenuated neurofibrosis within the ARC; also recorded: preferentially attenuates CSPG-ECM in the ARC
same,CSPG-ECM expression in the habenula,"CSPG-ECM; I.C.V., highest dose",only partially attenuated expression

# From patent US20260174677A1, “METHODS OF TREATING INSULIN RESISTANCE AND ASSOCIATED DISORDERS” (The University of Melboune, priority 2022, published 2026)
